Assay [1] has as its system TNF-α (NF-κB pathway, THP-1 cells). Nature of the assay: TNF-α Assay (IC50). It counts as cell-based, human. As to conditions: Homo sapiens, 600 ng/mL LPS, 3 hours. In outline: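 Supernatant TNF-α quantified by ELISA after 3 h stimulation with 600 ng/mL LPS at 37 °C, following 30 min compound preincubation. Cells: IFN-differentiated (25 ng/mL, 24 h) THP-1 macrophages, 40,000/well, serum-free. IC50 by sigmoidal fit of % inhibition, with TPCA-1 as 100% control.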

In assay [2] the test system is NLRP3 inflammasome (IL-1β production in THP-1 cells). Briefly: IL-1β TR-FRET Assay (percentage of inhibition at 300 nM, 6 μM or 10 μM). It counts as cell-based, human. As to conditions: Homo sapiens, LPS priming, ATP activation; for inhibition at 10 µM: THP-1, 10 μM, read-out: IL-1β inhibitory rate at 10 μM (%); for inhibition at 6 µM: THP-1, 6 μM, read-out: IL-1β inhibitory rate at 6 μM (%); for inhibition at 0.3 µM: THP-1, 300 nM, read-out: IL-1β inhibitory rate at 300 nM (%). In outline:
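Percent inhibition of IL-1β used DMSO wells as 0% and 3 μM MCC-950 wells as full inhibition, with supernatant read by HTRF. Beforehand, IFN-γ-differentiated (25 ng/mL, 24 h), LPS-primed (50 ng/mL, 24 h) THP-1 cells received compound 30 min before inflammasome activation by 20 mM ATP for 2 h.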
(In general: TR-FRET usually uses a lanthanide donor and a delayed reading to cut background.)

For the molecule `CCOc1nc2nn(-c3ccc(C4CC4)cn3)cc2c(=O)[nH]1` [Example 130, 2-(5-cyclopropylpyridin-2-yl)-6-ethoxy-2,5-dihydro-4H-pyrazolo[3,4-d]pyrimidin-4-one], the IC50 (commonly the midpoint of a concentration-inhibition curve) in assay [1] is above 30 µM. In addition, the inhibition at 10 µM in assay [2] was determined as 37%.

Turning to `COc1nc2nn(-c3c(C)cc(C4(F)CC4)cc3C)cc2c(=O)[nH]1` [Example 235, 2-[4-(1-fluorocyclopropyl)-2,6-dimethylphenyl]-6-methoxy-2,5-dihydro-4H-pyrazolo[3,4-d]pyrimidin-4-one], the IC50 in assay [1] was above 30 µM. Further, the inhibition at 6 µM in assay [2] amounted to 105%.

`CCOc1nc2nn(-c3c(C)cc(C)cc3Cl)cc2c(=O)[nH]1` [Example 70, 2-(2-chloro-4,6-dimethylphenyl)-6-ethoxy-2,5-dihydro-4H-pyrazolo[3,4-d]pyrimidin-4-one] showed an IC50 in assay [1] above 30 µM. The inhibition at 0.3 µM in assay [2] amounted to 100%.

In assay [1], `Cc1cc(C2CC2)cc(C(F)F)c1-n1cc2c(=O)[nH]c(C3COCCO3)nc2n1` (racemic) [Example 316, 2-[4-cyclopropyl-2-(difluoromethyl)-6-methylphenyl]-6-(1,4-dioxan-2-yl)-2,5-dihydro-4H-pyrazolo[3,4-d]pyrimidin-4-one] came in with a half-inhibitory concentration (IC50) above 30 µM. In addition, the inhibition at 6 µM in assay [2] came to 104%.

For `Cc1ccc(-n2nc3nc(OCC(C)(F)F)[nH]c(=O)c3c2C)c(O)c1` [Example 91, 6-(2,2-difluoropropoxy)-2-(2-hydroxy-4-methylphenyl)-3-methyl-2,5-dihydro-4H-pyrazolo[3,4-d]pyrimidin-4-one], in assay [1], the IC50 is above 30 µM. Also, the inhibition at 0.3 µM in assay [2] came out at 76%.

The molecule `COc1nc2nn(-c3c(C)cc(Br)cc3C(F)F)cc2c(=O)[nH]1` [Example 214, 2-[4-bromo-2-(difluoromethyl)-6-methylphenyl]-6-methoxy-2,5-dihydro-4H-pyrazolo[3,4-d]pyrimidin-4-one] yielded an IC50 in assay [1] above 30 µM. Further, the inhibition at 0.3 µM in assay [2] came out at 107%.

On to `Cc1cc(C)c(-n2cc3c(=O)[nH]c(CN4CCOCC4)nc3n2)c(O)c1` [Example 62, 2-(2-hydroxy-4,6-dimethylphenyl)-6-[(morpholin-4-yl)methyl]-2,5-dihydro-4H-pyrazolo[3,4-d]pyrimidin-4-one], for which the 50% inhibitory concentration (IC50) in assay [1] was above 30 µM. Besides, in assay [2], the inhibition at 0.3 µM came out at 95%.

In assay [1], `Cc1cc(C2CC2)cc(C)c1-n1cc2c(=O)[nH]c([C@@]3(F)CCOC3)nc2n1` [Example 247, 2-(4-cyclopropyl-2,6-dimethylphenyl)-6-(3-fluorooxolan-3-yl)-2,5-dihydro-4H-pyrazolo[3,4-d]pyrimidin-4-one] yielded an IC50 above 30 µM. In addition, the inhibition at 6 µM in assay [2] turned out to be 100%.

In the case of `CCOc1nc2nn(-c3c(O)cc(C)cc3C3CC3)cc2c(=O)[nH]1` [Example 11, 2-(2-cyclopropyl-6-hydroxy-4-methylphenyl)-6-ethoxy-2,5-dihydro-4H-pyrazolo[3,4-d]pyrimidin-4-one], the IC50 in assay [1] was above 30 µM. Moreover, the inhibition at 0.3 µM in assay [2] is 99%.

Take `CCOc1nc2nn(-c3c(C)cc(-n4cccn4)cc3C)cc2c(=O)[nH]1` [Example 139, 2-[2,6-dimethyl-4-(1H-pyrazol-1-yl)phenyl]-6-ethoxy-2,5-dihydro-4H-pyrazolo[3,4-d]pyrimidin-4-one]: the IC50 in assay [1] was above 30 µM. Further, the inhibition at 10 µM in assay [2] was found to be 95%.

Consider `CCOc1nc2nn(-c3ncc(C4CC4)cc3C(F)(F)F)cc2c(=O)[nH]1` [Example 153, 2-[5-cyclopropyl-3-(trifluoromethyl)pyridin-2-y]-6-ethoxy-2,5-dihydro-4H-pyrazolo[3,4-d]pyrimidin-4-one], for which the IC50 in assay [1] was above 30 µM. The inhibition at 0.3 µM in assay [2] was 101%.

Consider `O=c1[nH]c(COC(F)F)nc2nn(-c3c(F)cc(C4CC4)cc3C(F)F)cc12` [Example 302, 2-[4-cyclopropyl-2-(difluoromethyl)-6-fluorophenyl]-6-[(difluoromethoxy)methyl]-2,5-dihydro-4H-pyrazolo[3,4-d]pyrimidin-4-one], for which the IC50 in assay [1] is above 30 µM. In addition, the inhibition at 6 µM in assay [2] was 96%.

The record behind these values is patent publication US20260297092A1, “PYRAZOLOPYRIMIDINE DERIVATIVES AS INHIBITORS OF NLRP3” (Takeda Pharmaceutical Company Limited, priority 2023, published 2026).
